The record followed here is patent publication US20030157541A1, “Regulation of human CycLT2-like GPCR protein” (Bayer Aktiengesellschaft, priority 2000, published 2003).

The target in the test is T1, CysLT2 (Homo sapiens, UniProt Q9NS75).
T1 construct: expressed in transfected cells; membranes used
T1 sequence (Q9NS75 1-346): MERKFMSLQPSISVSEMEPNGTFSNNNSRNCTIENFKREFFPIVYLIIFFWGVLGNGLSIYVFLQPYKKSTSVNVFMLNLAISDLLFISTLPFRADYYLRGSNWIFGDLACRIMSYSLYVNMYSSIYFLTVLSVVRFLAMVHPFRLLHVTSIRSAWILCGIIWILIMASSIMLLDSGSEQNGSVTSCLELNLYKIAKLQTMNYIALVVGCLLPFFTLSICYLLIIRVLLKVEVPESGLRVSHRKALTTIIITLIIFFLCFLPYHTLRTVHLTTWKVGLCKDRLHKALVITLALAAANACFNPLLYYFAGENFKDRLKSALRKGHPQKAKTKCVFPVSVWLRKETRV
Briefly: Competition for [^3H]LTD4-specific binding to CysLT2 membranes. The protocol:
Membrane preparation for CysLT2 receptor binding assay. Peak stable cells transformed with CysLT2 expression vector were maintained in D-MEM supplemented with 10% FCS and 2 μg/ml of puromycin. Cells were collected and kept at −80° C. until membrane preparation. Frozen cells were suspended in cold membrane preparation buffer (50 mM Tris-HCl pH 7.5, protease inhibitor mixture(#1873580, Roche)), and disrupted with Polytron (Cat.#PT10-35, Kinematica AG, Switzerland). Disrupted cells were centrifuged at 500×g for 5 minutes at 4° C. to remove the nuclear fraction, and supernatants were applied to high speed centrifugation (45,000×g, 15 minutes, 4° C.) to precipitate membrane fraction. After the supernatant was removed, membrane preparation buffer were added to the pellet and homogenized gently on ice. Glycerol (final conc.;10%) and bovine serum albumin (final conc.:0.5%, Cat#A-3059, Sigma) were added to the membrane suspension as stabilizer. Membrane suspension was then divided into small vials and frozen in liquid nitrogen. After 1 hour freezing, vials were kept at −80° C. until use.
At the end of the binding reaction, 100 μl of the reaction mixture was transferred to a 96-well filtration plate (Cat.#MAFB-N0B, Millipore), and washed 3 times with 200 μl/well of cold binding buffer. […] The specific binding (total binding—non-specific binding) was measured by liquid scintillation counter (TopCount™, Packard) and expressed as the relative binding (%) in the figure.
Inhibition assay using several antagonists.

In turn, `CCOC(=O)c1cn(-c2ccc(C3=CC(F)(F)C3(F)F)cc2)c2cc(F)c(F)cc2c1=O` [Bay y9773] gave an IC50 of 2000 nM.
`O=C(O)CCCNC(=O)c1cc(C(=O)O)ccc1OCCCc1ccc(OCCCCOc2ccccc2)cc1` [Bay y8934] came in with an IC50 of 1000 nM.
Regarding `CCCCC/C=C\C[C@@H](O)/C=C/C=C/C=C\[C@@H](O)CCCC(=O)O` [LTB4, Leukotriene B4], the “inhibition of [^3H]LTD4 binding to CysLT2” value (at concentrations up to 10^−6 M, 0.4 nM [^3H]-labeled LTD4) is “did not inhibit”.

What is called IC50 is the midpoint of a concentration-inhibition curve. A high value points to a need for much substance.
